From EPA's ToxRefDB 2

Key:
rat [1] = conditions: Other (NonGuideline or Guideline Not Listed), sprague dawley, Oral, Gavage/Intubation, dose end: 7 day, group: cannot be grouped
rat [2] = conditions: Subchronic oral toxicity in rodents, fischer, Feed, dose end: 8 week, group: systemic
mouse [3] = conditions: Carcinogenicity, b6c3f1, Oral, Feed, dose end: 78 week, group: systemic
mouse [4] = conditions: Subchronic oral toxicity in rodents, b6c3f1, Feed, dose end: 8 week, group: systemic
rat [5] = conditions: Carcinogenicity, fischer, Oral, Feed, dose end: 78 week, group: systemic
rat [6] = conditions: Subchronic oral toxicity in rodents, fischer, Feed, dose end: 13 week, group: systemic
mouse [7] = conditions: Subchronic oral toxicity in rodents, b6c3f1, Feed, dose end: 13 week, group: systemic, systemic / in life observation / body weight / body weight + systemic / in life observation / food consumption / food consumption
rat [8] = conditions: Combined chronic toxicity/carcinogenicity, fischer, Oral, Feed, dose end: 2 year, group: systemic
mouse [9] = conditions: Carcinogenicity, b6c3f1, Oral, Feed, dose end: 2 year, group: systemic
rat [10] = conditions: Multigenerational reproductive toxicity study, sprague dawley, Oral, Feed, dose end: 2 generation
rabbit = conditions: Prenatal developmental toxicity study, new zealand white, Oral, Gavage/Intubation, dose end: 19 GD
rat [11] = conditions: Prenatal developmental toxicity study, wistar, Oral, Gavage/Intubation, dose end: 16 GD
rat [12] = conditions: Combined chronic toxicity/carcinogenicity, sprague dawley, Oral, Feed, dose end: 24 month, group: systemic
rat [13] = conditions: Subchronic oral toxicity in rodents, sprague dawley, Feed, dose end: 90 day, group: systemic
dog [14] = conditions: Chronic toxicity, beagle, Oral, Capsule, dose end: 52 week, group: systemic
dog [15] = conditions: Subchronic oral toxicity in dogs, beagle, Capsule, dose end: 90 day, group: systemic, systemic / clinical chemistry / alanine aminotransferase (alt/sgpt) / alanine aminotransferase (alt/sgpt) + systemic / clinical chemistry / …
[16] = systemic / clinical chemistry / alanine aminotransferase (alt/sgpt) / alanine aminotransferase (alt/sgpt) + systemic / clinical chemistry / …
[17] = systemic / in life observation / body weight / body weight gain + systemic / in life observation / clinical signs / defecation + systemic / …
[18] = systemic / in life observation / body weight / body weight
[19] = systemic / in life observation / body weight / body weight + systemic / in life observation / mortality / mortality
[20] = systemic / in life observation / body weight / body weight + systemic / pathology microscopic / gallbladder / hyperplasia
[21] = systemic / in life observation / body weight / body weight + systemic / pathology microscopic / gallbladder / hyperplasia + systemic / …
[22] = systemic / in life observation / body weight / body weight + systemic / pathology microscopic / urinary bladder / carcinoma + systemic / …
[23] = systemic / in life observation / body weight / body weight + systemic / in life observation / food consumption / food consumption
[24] = systemic / in life observation / food consumption / food consumption
[25] = systemic / in life observation / food consumption / food consumption + systemic / pathology microscopic / lung / adenoma/carcinoma combined…
[26] = group: offspring, systemic / in life observation / body weight / offspring (pup) weight gain + systemic / pathology gross / liver / discolored + systemic / …
[27] = group: parental, systemic / organ weight / liver / nos + systemic / pathology gross / liver / accentuated lobular pattern + systemic / pathology gross / …
[28] = group: reproductive, reproductive / offspring survival early / litter size / litter size
[29] = group: developmental, systemic / in life observation / body weight / fetal weight
[30] = group: developmental, systemic / in life observation / body weight / fetal weight + developmental / developmental malformation / bone / hole(s)
[31] = group: maternal, systemic / in life observation / body weight / body weight gain + systemic / in life observation / food consumption / food consumption
[32] = group: developmental, developmental / developmental malformation / bone / delayed ossification + developmental / developmental malformation / bone / full …
[33] = group: maternal, reproductive / offspring survival early / offspring survival early other / NOS + systemic / in life observation / body weight / body weight …
[34] = systemic / hematology / platelet / platelet
[35] = systemic / pathology microscopic / adrenal gland / vacuolization + systemic / pathology microscopic / liver / fatty change + systemic / …
[36] = systemic / clinical chemistry / aminopyrine-n-demethylase / aminopyrine-n-demethylase
[37] = systemic / organ weight / liver / absolute + systemic / clinical chemistry / alanine aminotransferase (alt/sgpt) / alanine aminotransferase…

CCOc1cccc(-n2cc(C(=O)N3CCN(c4cc(C(=O)[O-])c5ccccc5c4)CC3)nc2-c2ccc(C)cc2)c1.[Na+]
LOAEL (rat [1]; [16]): > 500 mg/kg/day | NOAEL (rat [1]; [16]): ≥ 500 mg/kg/day | LEL (rat [1]; [17]): 10 mg/kg/day | NEL (rat [1]; [17]): < 10 mg/kg/day

Nc1ccc(Cl)cc1N [4-Chloro-1,2-diaminobenzene]
LEL (rat [2]; [18]): 500 mg/kg/day | LOAEL (rat [2]; [18]): 500 mg/kg/day | NEL (rat [2]; [19]): 50 mg/kg/day | NOAEL (rat [2]; [19]): 50 mg/kg/day | LOAEL (mouse [3]; [20]): 1050 mg/kg/day | NOAEL (mouse [3]; [20]): < 1050 mg/kg/day | LEL (mouse [3]; [21]): 1050 mg/kg/day | NEL (mouse [3]; [21]): < 1050 mg/kg/day | LEL (mouse [4]; [18]): 1500 mg/kg/day | LOAEL (mouse [4]; [18]): 1500 mg/kg/day | NEL (mouse [4]; [19]): 150 mg/kg/day | NOAEL (mouse [4]; [19]): 150 mg/kg/day | LOAEL (rat [5]; [18]): 250 mg/kg/day | NOAEL (rat [5]; [18]): < 250 mg/kg/day | LEL (rat [5]; [22]): 250 mg/kg/day | NEL (rat [5]; [22]): < 250 mg/kg/day

Oc1cccc2cccnc12 [8-Hydroxyquinoline]
LOAEL (rat [6]; [23]): 300 mg/kg/day | NEL (rat [6]; [23]): 75 mg/kg/day | NOAEL (rat [6]; [23]): 150 mg/kg/day | LEL (rat [6]; [24]): 150 mg/kg/day | LEL (mouse [7]): 900 mg/kg/day | LOAEL (mouse [7]): 900 mg/kg/day | NEL (mouse [7]): 450 mg/kg/day | NOAEL (mouse [7]): 450 mg/kg/day | LEL (rat [8]; [24]): 73 mg/kg/day | NEL (rat [8]; [24]): < 73 mg/kg/day | LOAEL (rat [8]; [25]): > 143 mg/kg/day | NOAEL (rat [8]; [25]): ≥ 143 mg/kg/day | LOAEL (mouse [9]; [23]): > 396 mg/kg/day | NOAEL (mouse [9]; [23]): ≥ 396 mg/kg/day | LEL (mouse [9]; [24]): 217 mg/kg/day | NEL (mouse [9]; [24]): < 217 mg/kg/day

CCCCC(O)(Cn1cncn1)c1ccc(Cl)cc1Cl (stereo not given) [Hexaconazole]
LEL (rat [10]; [26]): 50 mg/kg/day | LOAEL (rat [10]; [26]): 50 mg/kg/day | NEL (rat [10]; [26]): 5 mg/kg/day | NOAEL (rat [10]; [26]): 5 mg/kg/day | LOAEL (rat [10]; [27]): 50 mg/kg/day | NEL (rat [10]; [27]): 1 mg/kg/day | NOAEL (rat [10]; [27]): 5 mg/kg/day | LEL (rat [10]; group: parental, systemic / pathology microscopic / liver / fatty change): 5 mg/kg/day | LEL (rat [10]; [28]): 50 mg/kg/day | LOAEL (rat [10]; [28]): 50 mg/kg/day | NEL (rat [10]; [28]): 5 mg/kg/day | NOAEL (rat [10]; [28]): 5 mg/kg/day | LEL (rabbit; [29]): 50 mg/kg/day | LOAEL (rabbit; [29]): 50 mg/kg/day | NEL (rabbit; [30]): 25 mg/kg/day | NOAEL (rabbit; [30]): 25 mg/kg/day | LOAEL (rabbit; group: maternal, systemic / in life observation / body weight / body weight gain): 100 mg/kg/day | LEL (rabbit; [31]): 100 mg/kg/day | NEL (rabbit; [31]): 50 mg/kg/day | NOAEL (rabbit; [31]): 50 mg/kg/day | LEL (rat [11]; [32]): 2.5 mg/kg/day | LOAEL (rat [11]; [32]): 2.5 mg/kg/day | NEL (rat [11]; [32]): < 2.5 mg/kg/day | NOAEL (rat [11]; [32]): < 2.5 mg/kg/day | LEL (rat [11]; [33]): 250 mg/kg/day | LOAEL (rat [11]; [33]): 250 mg/kg/day | NEL (rat [11]; [33]): 25 mg/kg/day | NOAEL (rat [11]; [33]): 25 mg/kg/day | LEL (rat [12]; [34]): 0.47 mg/kg/day | NEL (rat [12]; [34]): < 0.47 mg/kg/day | LOAEL (rat [12]; [35]): 4.7 mg/kg/day | NOAEL (rat [12]; [35]): 0.47 mg/kg/day | LEL (rat [13]; [36]): 2.5 mg/kg/day | NEL (rat [13]; [36]): < 2.5 mg/kg/day | NOAEL (rat [13]; systemic / pathology microscopic / adrenal gland / vacuolization + systemic / clinical chemistry / alanine aminotransferase (alt/sgpt) / …): 2.5 mg/kg/day | LOAEL (rat [13]; systemic / pathology microscopic / adrenal gland / vacuolization + systemic / pathology microscopic / liver / fatty change): 25 mg/kg/day | NEL (dog [14]; [37]): 2 mg/kg/day | NOAEL (dog [14]; [37]): 2 mg/kg/day | LOAEL (dog [14]; systemic / organ weight / liver / absolute + systemic / pathology microscopic / liver / lipid deposition): 10 mg/kg/day | LEL (dog [14]; systemic / organ weight / liver / absolute + systemic / pathology microscopic / liver / lipid deposition + systemic / clinical chemistry / …): 10 mg/kg/day | LEL (dog [15]): 25 mg/kg/day | LOAEL (dog [15]): 25 mg/kg/day | NEL (dog [15]): 5 mg/kg/day | NOAEL (dog [15]): 5 mg/kg/day
